From patent US9085554B2, “Method of evaluating pharmaceutical preparation containing luliconazole and index substance” (POLA PHARMA INC., priority 2013, dated 2015)

Legend:
fungi = experiment: Antifungal activity of the amide form
[1] = Severe test / accelerated test of luliconazole as the active ingredient; assay type: physicochemical
From the text: Further, it is considered that this amide form is produced by the addition of water with respect to a cyano group of the luliconazole. […] Namely, the presence of the amide form is speculated; however, the substance thereof has not been understood. Accordingly, it is difficult to speculate in the stage of manufacturing the pharmaceutical preparation that such a compound may be produced under a storage condition depending on the type of the solvent.
The severe condition herein refers to a storage condition at 60° C. for 3 weeks, and the accelerated condition herein refers to a storage condition at 40° C. for 6 months. The stability of a pharmaceutical preparation containing luliconazole has shown very good consistency between the severe condition and the accelerated condition. Accordingly, either of the conditions can be used. Further, the storage at 40° C. for 6 months is known as a condition substitutable for the condition at a room temperature for 3 years in an application for manufacturing approval of a pharmaceutical.
It is known that water is usually readily added to a cyano group by an acid or a base and the amide form is thereby produced. However, this generality is not applicable in the case of luliconazole, for the following reason. […]

Row | Compound | Antifungal activity (fungi) | Production of SE form and Z form ([1]; accelerated test and/or severe test) | Production of amide form from luliconazole active ingredient ([1]; severe test (60° C., 3 weeks) or accelerated test (40° C., 6 months) of the active ingredient)
1 | NC(=O)/C(=C1/SC[C@@H](c2ccc(Cl)cc2Cl)S1)n1ccnc1 [amide form, [R-(E)]-α-[4-(2,4-dichlorophenyl)-1,3-dithiolan-2-ylidene]-1H-imidazole-1-acetamide] | low | – | –
2 | N#C/C(=C1/SC[C@@H](c2ccc(Cl)cc2Cl)S1)n1ccnc1 [luliconazole, Luliconazole] | – | relatively readily produced | hardly produced
